Laboratory results taken from article PMC10933966, “In Vitro and In Silico of Cholinesterases Inhibition and In Vitro and In Vivo Anti-Melanoma Activity Investigations of Extracts Obtained from Selected Berberis Species” (Molecules, 2024).
Like-named read-outs stand apart in the source and are kept apart here.

Key:
acetylcholinesterase [1] = biological target: T1, acetylcholinesterase (Homo sapiens, UniProt P22303); assay: Kinetic study of acetylcholinesterase inhibition (Lineweaver-Burk plots and replots); format: biochemical; settings: for type of acetylcholinesterase inhibition: Lineweaver-Burk plots
T1 construct: purchased Sigma-Aldrich (St. Louis, MO, USA)
T1 sequence (P22303 32-614, species assumed): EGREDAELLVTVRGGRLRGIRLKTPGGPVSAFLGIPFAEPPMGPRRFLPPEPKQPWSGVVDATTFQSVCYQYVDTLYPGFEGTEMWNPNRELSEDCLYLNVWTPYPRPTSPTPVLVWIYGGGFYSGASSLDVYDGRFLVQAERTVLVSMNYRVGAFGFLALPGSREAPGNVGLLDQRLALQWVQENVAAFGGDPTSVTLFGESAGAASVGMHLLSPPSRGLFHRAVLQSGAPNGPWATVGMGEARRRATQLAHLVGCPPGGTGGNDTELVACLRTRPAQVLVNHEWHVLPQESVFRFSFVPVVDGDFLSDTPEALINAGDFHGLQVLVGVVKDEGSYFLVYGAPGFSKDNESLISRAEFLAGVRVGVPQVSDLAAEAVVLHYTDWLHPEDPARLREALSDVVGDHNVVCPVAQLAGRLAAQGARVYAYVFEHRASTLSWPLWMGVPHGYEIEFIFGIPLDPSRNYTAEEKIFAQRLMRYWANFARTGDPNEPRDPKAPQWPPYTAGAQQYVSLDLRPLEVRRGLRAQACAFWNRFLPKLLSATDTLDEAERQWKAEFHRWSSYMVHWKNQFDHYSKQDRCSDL
Protocol: Lineweaver–Burk and Dixon plots were used for the determination of the type of inhibition and inhibition constants (Ki value) of these alkaloids. […] The Ki value was estimated from the replots of the slope of the individual Lineweaver–Burk plots versus the inhibitor concentrations (Figure 5B). […] The type of acetylcholinesterase inhibition and Ki value was determined for palmatine by the same method.

[2] = tested on: human skin fibroblasts (WS1 cell line); assay: MTT cell viability, skin fibroblasts WS1; format: cell-based
Protocol: (§1) The MTT assay, which measures the activity of mitochondrial metabolism, was used for the determination of the influence of alkaloid standards on cancer cell viability.
(§2) For the evaluation of the effect of Berberis species, extracts against normal human skin fibroblast cells (WS1) were used. Both cell lines were received from the American Type Culture Collection (ATCC; Manassas, VA, USA). A375 and WS1 cells were cultured in Dulbecco’s Modified Eagle’s Medium (DMEM) (Sigma Aldrich, St. Louis, MO, USA). The procedure used in investigations of cell viability was described previously. Inactivated fetal bovine serum, penicillin, and streptomycin were added to cells maintained in a CO2 atmosphere at 37 °C. The suspension of cells was applied to a 96-well plate and incubated for 24 h. Next, the medium was removed from the wells, and Berberis species extracts or alkaloid standards were added to the wells. After incubation, MTT working solution was added to each well, and the plate was again incubated for 3 h. Subsequently, an SDS solution was added, and the concentration of the dissolved formazan was measured (for details, see Section S3. Procedure for investigation of cell viability). For the calculation of IC50 values obtained for the plant extracts and alkaloid standards, the IC50 calculator (https://www.aatbio.com/tools/ic50-calculator, accessed on 16 January 2024) was used.
S1. […]

acetylcholinesterase [3] = biological target: T1, acetylcholinesterase; settings: previously reported; cited from earlier work
[4] = ref PubChem; cited from earlier work
[5] = tested on: human melanoma cell line (A375); assay: MTT cell viability, melanoma cell line A375; format: cell-based; settings: 24 h incubation
Protocol: as §1, §2
S1. […]

acetylcholinesterase [6] = biological target: T1, acetylcholinesterase; format: biochemical; settings: alkaloid standards; 15 min at 37 °C, pH 7.8
Protocol: (§3) All experiments were repeated three times.
S1. Samples preparation for determination of acetylcholinesterase inhibitory activity A stock solutions of reagents were prepared by dissolving of acetylcholinesterase at con-centrations 200 U/mL or 2 U/mL, acetylthiocholine iodide at concentration 0.0125 M and 5′- dithiobis-(2-nitrobenzoic acid) at concentration 0.00167 M in phosphate buffer at pH 7.8.
Samples for determination of acetylcholinesterase inhibitory activity were obtained by mixing of 50 µL of acetylthiocholine iodide, 50 µL of 5′-dithiobis-(2-nitrobenzoic acid), 50 µL of […]
as §3
All experiments were performed in triplicates.

butyrylcholinesterase [7] = biological target: T2, butyrylcholinesterase (Homo sapiens, UniProt P06276); assay: Butyrylcholinesterase inhibition, Ellman method with HPLC-DAD; format: biochemical; settings: alkaloid standards; 15 min at 37 °C, pH 7.8
T2 construct: purchased Sigma-Aldrich (St. Louis, MO, USA)
T2 sequence (P06276 29-602): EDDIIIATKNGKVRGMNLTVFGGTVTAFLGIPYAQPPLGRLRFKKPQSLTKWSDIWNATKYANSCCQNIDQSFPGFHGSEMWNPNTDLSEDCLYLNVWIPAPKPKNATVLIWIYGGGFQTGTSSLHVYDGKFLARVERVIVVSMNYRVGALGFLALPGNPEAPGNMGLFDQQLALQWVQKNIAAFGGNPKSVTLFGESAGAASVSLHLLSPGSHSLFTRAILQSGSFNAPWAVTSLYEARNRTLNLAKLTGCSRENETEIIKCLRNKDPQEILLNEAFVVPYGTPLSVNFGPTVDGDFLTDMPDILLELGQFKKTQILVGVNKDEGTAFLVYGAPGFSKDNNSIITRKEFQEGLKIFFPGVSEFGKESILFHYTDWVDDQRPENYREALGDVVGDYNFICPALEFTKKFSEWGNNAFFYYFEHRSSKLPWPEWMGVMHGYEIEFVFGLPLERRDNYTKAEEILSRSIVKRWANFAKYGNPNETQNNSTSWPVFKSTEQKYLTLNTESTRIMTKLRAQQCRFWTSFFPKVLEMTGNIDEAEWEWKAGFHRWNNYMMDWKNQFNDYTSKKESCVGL

butyrylcholinesterase [8] = biological target: T2, butyrylcholinesterase; settings: cited from earlier work
acetylcholinesterase [9] = biological target: T1, acetylcholinesterase; settings: cited from earlier work
butyrylcholinesterase [10] = biological target: T2, butyrylcholinesterase; settings: read-out: IC50 butyrylcholinesterase; alkaloids isolated from Berberis vulgaris root bark; cited from earlier work
[11] = tested on: leukemic (Jurkat, MOLT-4), colon (HT-29), cervix (HeLa), breast (MCF-7) cancer cells; settings: MOLT-4, HT-29, HeLa, read-out: IC50 values, proliferation and viability; cited from earlier work

Compound	Hydrogen bond acceptor count [4]	Hydrogen bond donor count [4]	Log P [4]	Polar surface area [4] [Å²]	also measured
COc1ccc2cc3[n+](cc2c1OC)CCc1cc2c(cc1-3)OCO2 [Berberine, berberine]	4	0	3.6	40.8	type of acetylcholinesterase inhibition (acetylcholinesterase [1]): noncompetitive; IC50 ([2]; Homo sapiens, WS1, 24 h, read-out: IC50 WS1): 95.3 µg/mL; mode of acetylcholinesterase inhibition (acetylcholinesterase [3]): non-competitive
COc1ccc2c(c[n+](C)c3c4cc5c(cc4ccc23)OCO5)c1OC [Chelerythrine, chelerythrine]	4	0	4.6	40.8	
N.N.[Cl][Pt][Cl] [Cisplatin, cisplatin]					IC50 A375 [5]: 23.8 µg/mL; IC50 WS1 ([2]; human skin fibroblast cell line WS1, MTT, 24 h incubation): 44.07 µg/mL
COc1cc2c(cc1OC)-c1cc3ccc(OC)c(OC)c3c[n+]1CC2 [Palmatine, palmatine]	4	0	3.7	40.8	IC50 (acetylcholinesterase [6]): 29.2 ± 1.59 µM; IC50 Values Acetylcholinesterase (acetylcholinesterase [6]): 10.27 µg/mL; IC50 (butyrylcholinesterase [7]): 189 ± 42.5 µM; IC50 Values Butyrylcholinesterase (butyrylcholinesterase [7]): 66.74 µg/mL; type of acetylcholinesterase inhibition (acetylcholinesterase [1]): mixed-type; Ki (acetylcholinesterase [1]; replot of Lineweaver-Burk slopes vs inhibitor concentration, substrate acetylthiocholine iodide): 17 µM; IC50 butyrylcholinesterase (butyrylcholinesterase [8]): 116.7 µg/mL; IC50 acetylcholinesterase (acetylcholinesterase [9]): 7.4 µg/mL; mode of acetylcholinesterase inhibition (acetylcholinesterase [3]): mixed mode
CN1CCc2cc3c(cc2C(=O)Cc2ccc4c(c2C1)OCO4)OCO3 [Protopine, protopine]	6	0	2.8	57.2	
C[n+]1cc2c3c(ccc2c2ccc4cc5c(cc4c21)OCO5)OCO3 [Sanguinarine, sanguinarine]	4	0	4.4	40.8	
COc1cc2c3cc1Oc1c(O)c(OC)cc4c1[C@H](Cc1ccc(cc1)Oc1cc(ccc1O)C[C@H]3N(C)CC2)N(C)CC4 [aromoline]					IC50 (butyrylcholinesterase [10]): 0.82 µM
Bersavine					IC50 [11]: 8.1 to 11 µM
